Read-outs that look alike come from different tables or passages of the source.
Tests used:
[1] = tested on: S. aureus RN450; assay: In Vitro Anti-Bacterial Activity Assay (MIC), gram positive; assay type: cell-based; conditions: Staphylococcus aureus, RN450, 18 h
[2] = tested on: E. coli mL308 225; assay: In Vitro Anti-Bacterial Activity Assay (MIC), gram negative; assay type: cell-based; conditions: Escherichia coli, ML308225, 18 h
[3] = gram positive bacteria, read-out: Antibiotic Activity Gram + (MIC)
[4] = gram negative bacteria, read-out: Antibiotic Activity Gram − (MIC)
[5] = MIC class, Table 3, read-out: Antibiotic Activity Gram +
[6] = MIC class, Table 3, read-out: Antibiotic Activity Gram −
[7] = MIC class, Table 3 (Continued), read-out: Gram+ activity
[8] = MIC class, Table 3 (Continued), read-out: Gram− activity

| SMILES | MIC [1, 3] [µg/mL] | MIC [2, 4] [µg/mL] | other results |
| --- | --- | --- | --- |
| CN(C)c1cc(CNCc2cc(F)c(F)c(F)c2)c(O)c2c1C[C@H]1C[C@H]3[C@H](N(C)C)C(O)=C(C(N)=O)C(=O)[C@@]3(O)C(O)=C1C2=O | < 4 | < 4 | – |
| CN(C)CCNC(=O)c1ccc(-c2ccc(O)c3c2C[C@H]2C[C@H]4[C@H](N(C)C)C(O)=C(C(N)=O)C(=O)[C@@]4(O)C(O)=C2C3=O)cc1 | < 4 | > 4 | – |
| CCOc1ccc(-c2ccc(O)c3c2C[C@H]2C[C@H]4C(N(C)C)C(O)=C(C(N)=O)C(=O)[C@@]4(O)C(O)=C2C3=O)cc1CNC(=O)NC(C)(C)C (stereo partly shown) [HK] | – | – | MIC [1, 5]: < 4 µg/mL; MIC [2, 6]: > 4 µg/mL |
| CC(C)COC(=O)NCc1ccc(O)c2c1C[C@H]1C[C@H]3[C@H](N(C)C)C(O)=C(C(N)=O)C(=O)[C@@]3(O)C(O)=C1C2=O [FT] | – | – | MIC [1, 5]: < 4 µg/mL; MIC [2, 6]: > 4 µg/mL |
| C[C@H]1c2ccc(CNC(=O)c3ccccc3)c(O)c2C(=O)C2=C(O)[C@]3(O)C(=O)C(C(N)=O)=C(O)[C@@H](N(C)C)[C@@H]3[C@@H](O)[C@@H]21 [JO] | – | – | MIC [1, 5]: < 4 µg/mL; MIC [2, 6]: > 4 µg/mL |
| C=CCCOC(=O)NCc1cc(N(C)C)c2c(c1O)C(=O)C1=C(O)[C@]3(O)C(=O)C(C(N)=O)=C(O)[C@@H](N(C)C)[C@@H]3C[C@@H]1C2 [EO] | – | – | MIC [1, 5]: < 4 µg/mL; MIC [2, 6]: > 4 µg/mL |
| CCC(=O)O[C@@H]1[C@H]2[C@H](N(C)C)C(O)=C(C(N)=O)C(=O)[C@@]2(O)C(O)=C2C(=O)c3c(O)cccc3C(C)[C@H]21 (stereo partly shown) | – | – | MIC [1, 7]: > 4 µg/mL; MIC [2, 8]: > 4 µg/mL |
| CN(C)[C@@H]1C(O)=C(C(N)=O)C(=O)[C@@]2(O)C(O)=C3C(=O)c4c(O)ccc(-c5cc6ccccc6o5)c4C[C@H]3C[C@@H]12 [drawing 3387] | < 4 | > 4 | – |
| CN(C)[C@@H]1C(O)=C(C(N)=O)C(=O)[C@@]2(O)C(O)=C3C(=O)c4c(ccc(N)c4O)C[C@H]3C[C@@H]12 [JU] | – | – | MIC [1, 5]: < 4 µg/mL; MIC [2, 6]: < 4 µg/mL |
| CN(C)[C@@H]1C(O)=C(C(N)=O)C(=O)[C@@]2(O)C(O)=C3C(=O)c4c(O)ccc(-c5ccc(CNC#N)cc5)c4C[C@H]3C[C@@H]12 | < 4 | < 4 | – |
| Cc1cc(C)cc(/C=C2\c3cccc(O)c3C(=O)C3=C(O)[C@]4(O)C(=O)C(C(N)=O)=C(O)[C@@H](N(C)C)[C@@H]4[C@@H](O)[C@@H]32)c1 | – | – | MIC [1, 7]: < 4 µg/mL; MIC [2, 8]: < 4 µg/mL |
| COc1ccc(-c2ccc(O)c3c2C[C@H]2C[C@H]4[C@H](N(C)C)C(O)=C(C(N)=O)C(=O)[C@@]4(O)C(O)=C2C3=O)cc1 [drawing 3425] | < 4 | < 4 | – |
| CN(C)c1cc(CCCNS(C)(=O)=O)c(O)c2c1C[C@H]1C[C@H]3[C@H](N(C)C)C(O)=C(C(N)=O)C(=O)[C@@]3(O)C(O)=C1C2=O | > 4 | > 4 | – |
| CN(C)c1cc(CNC2C[C@H]3CC[C@@H]2C3)c(O)c2c1C[C@H]1C[C@H]3[C@H](N(C)C)C(O)=C(C(N)=O)C(=O)[C@@]3(O)C(O)=C1C2=O (stereo partly shown) | < 4 | < 4 | – |
| CC(=O)Nc1ccc(-c2ccc(O)c3c2C[C@H]2C[C@H]4[C@H](N(C)C)C(O)=C(C(N)=O)C(=O)[C@@]4(O)C(O)=C2C3=O)cc1 | < 4 | > 4 | – |
| CN(C)c1cc(CNC(N)=O)c(O)c2c1C[C@H]1C[C@H]3[C@H](N(C)C)C(O)=C(C(N)=O)C(=O)[C@@]3(O)C(O)=C1C2=O | > 4 | > 4 | – |
| CC(=O)Nc1ccc(-c2ccc(O)c3c2C[C@H]2C[C@H]4[C@H](N(C)C)C(O)=C(C(N)=O)C(=O)[C@@]4(O)C(O)=C2C3=O)cn1 | < 4 | > 4 | – |
| CN(C)c1cc(CNCc2ccccc2)c(O)c2c1C[C@H]1C[C@H]3[C@H](N(C)C)C(O)=C(C(N)=O)C(=O)[C@@]3(O)C(O)=C1C2=O [MW] | – | – | MIC [1, 5]: < 4 µg/mL; MIC [2, 6]: < 4 µg/mL |

| SMILES | MIC [1, 3] [µg/mL] | MIC [2, 4] [µg/mL] | other results |
| --- | --- | --- | --- |
| CN(C)[C@@H]1C(O)=C(C(N)=O)C(=O)[C@@]2(O)C(O)=C3C(=O)c4c(O)ccc(C#CC5(O)CCCCC5)c4C[C@H]3C[C@@H]12 | – | – | MIC [1, 7]: < 4 µg/mL; MIC [2, 8]: < 4 µg/mL |
| CN(C)[C@@H]1C(O)=C(C(N)=O)C(=O)[C@@]2(O)C(O)=C3C(=O)c4c(O)ccc(C(=O)C(=O)N5CCOCC5)c4C[C@H]3C[C@@H]12 | < 4 | > 4 | – |
| CC(=O)Nc1cc(-c2ccccn2)c2c(c1O)C(=O)C1=C(O)[C@]3(O)C(=O)C(C(N)=O)=C(O)[C@@H](N(C)C)[C@@H]3C[C@@H]1C2 | < 4 | > 4 | – |
| CN(C)c1cc(-c2ccc3c(c2)OCO3)c(O)c2c1C[C@H]1C[C@H]3[C@H](N(C)C)C(O)=C(C(N)=O)C(=O)[C@@]3(O)C(O)=C1C2=O [Y] | – | – | MIC [1, 5]: < 4 µg/mL; MIC [2, 6]: > 4 µg/mL |
| COc1ccc(OC(=O)Nc2cc(N(C)C)c3c(c2O)C(=O)C2=C(O)[C@]4(O)C(=O)C(C(N)=O)=C(O)[C@H](N(C)C)[C@@H]4C[C@@H]2C3)cc1 [DV] | – | – | MIC ([1]; read-out: Antibiotic Activity Gram +): > 4 µg/mL; MIC ([2]; read-out: Antibiotic Activity Gram −): > 4 µg/mL |
| C[C@H]1c2c(N)cc(I)c(O)c2C(=O)C2=C(O)[C@]3(O)C(=O)C(C(N)=O)=C(O)[C@@H](N(C)C)[C@@H]3[C@@H](O)[C@@H]21 | > 4 | > 4 | – |
| C[C@H]1c2ccc(-c3ccc(N(C)C)cc3)c(O)c2C(=O)C2=C(O)[C@]3(O)C(=O)C(C(N)=O)=C(O)[C@@H](N(C)C)[C@@H]3[C@@H](O)[C@@H]21 | < 4 | < 4 | – |
| CC#Cc1ccc(O)c2c1C[C@H]1C[C@H]3[C@H](N(C)C)C(O)=C(C(N)=O)C(=O)[C@@]3(O)C(O)=C1C2=O | – | – | MIC [1, 7]: < 4 µg/mL; MIC [2, 8]: < 4 µg/mL |
| CN(C)[C@@H]1C(O)=C(C(N)=O)C(=O)[C@@]2(O)C(O)=C3C(=O)c4c(O)ccc(-n5cccn5)c4C[C@H]3C[C@@H]12 | < 4 | < 4 | – |
| CN(C)[C@@H]1C(O)=C(C(N)=O)C(=O)[C@@]2(O)C(O)=C3C(=O)c4c(O)ccc(-c5ccc(Cl)o5)c4C[C@H]3C[C@@H]12 | – | – | MIC [1, 7]: < 4 µg/mL; MIC [2, 8]: < 4 µg/mL |
| CN(C)[C@@H]1C(O)=C(C(N)=O)C(=O)[C@@]2(O)C(O)=C3C(=O)c4c(O)ccc(CN5CCCC5)c4C[C@H]3C[C@@H]12 | < 4 | < 4 | – |
| CN(C)c1cc(CNC(=O)Nc2ccc3c(c2)OCO3)c(O)c2c1C[C@H]1C[C@H]3[C@H](N(C)C)C(O)=C(C(N)=O)C(=O)[C@@]3(O)C(O)=C1C2=O | < 4 | > 4 | – |
| CN(C)[C@@H]1C(O)=C(C(N)=O)C(=O)[C@@]2(O)C(O)=C3C(=O)c4c(ccc(CN)c4O)C[C@H]3C[C@@H]12 [AR] | – | – | MIC [1, 5]: < 4 µg/mL; MIC [2, 6]: < 4 µg/mL |
| CN(C)[C@@H]1C(O)=C(C(N)=O)C(=O)[C@@]2(O)C(O)=C3C(=O)c4c(O)ccc(C5CCCC5)c4C[C@H]3C[C@@H]12 | < 4 | < 4 | – |
| COC1C(C(N)=O)=C(O)[C@@H](N(C)C)[C@@H]2[C@@H](O)[C@H]3C(=C(O)[C@]12O)C(=O)c1c(O)cccc1[C@@H]3C (stereo partly shown) | > 4 | > 4 | – |
| CN(C)[C@@H]1C(O)=C(C(N)=O)C(=O)[C@@]2(O)C(O)=C3C(=O)c4c(O)c(CNC(=O)C5CC5)cc(-c5ccc(C(C)(C)C)cc5)c4C[C@H]3C[C@@H]12 | < 4 | < 4 | – |
| CN(C)[C@@H]1C(O)=C(C(N)=O)C(=O)[C@@]2(O)C(O)=C3C(=O)c4c(O)ccc(C=CC(N)=O)c4C[C@H]3C[C@@H]12 [BO] | – | – | MIC [1, 5]: > 4 µg/mL; MIC [2, 6]: > 4 µg/mL |

From patent publication US20150141381A1, “TETRACYCLINE COMPOUNDS HAVING TARGET THERAPEUTIC ACTIVITIES” (Paratek Pharmaceuticals, Inc., priority 2001, published 2015)
